From patent US11214803B2, “Modulators of YAP1 expression” (Ionis Pharmaceuticals, Inc., priority 2019, dated 2022) come the findings set out here.

Strand notation (5' to 3'): a small letter for the sugar, then the base; units joined by * are phosphorothioate-linked, units joined directly phosphodiester-linked; [ ] holds rarer units or linkages, { } end groups; capitals alone tell only the bases. e = 2'-O-(2-methoxyethyl) (MOE); k = constrained ethyl (cEt); [5mC] = 5-methylcytosine; d = 2'-deoxy (DNA); m = 2'-O-methyl

This data set has as its system Yap1 mRNA. Kind of data set: Antisense inhibition of human Yap1 in SNU-449 cells by modified oligonucleotides, single dose (Example 5, RTS36584). In kind it is cell-based. Summed up: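 Values are % of untreated control: Yap1 mRNA by quantitative RT-PCR (RTS36584), normalized to RIBOGREEN total RNA. Oligonucleotides were dosed at 2,000 nM, free uptake, in SNU-449 cells, with roughly 48 h exposure before RNA isolation.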

Where [1] appears, read: Table 44 experiment, SNU-449 cells, 10,000 cells per well, free uptake, 2,000 nM, approximately 48 hours, RTS36584, Yap1 mRNA normalized to RIBOGREEN, relative to untreated control cells.
Where [2] appears, read: Table 45, Yap1 mRNA as percent of untreated control, SNU-449 cells, single dose.
Setting [3] is: Table 52, Yap1 mRNA, modified oligonucleotides targeting SEQ ID NO: 1 and 2.
Where [4] appears, read: Table 42 (separate experiment), SNU-449 cells, 10,000 cells per well, free uptake, 2,000 nM modified oligonucleotide, approximately 48 hours, RTS36584, normalized to RIBOGREEN, Yap1 mRNA relative to untreated control cells.
Where [5] appears, read: Table 40 (separate experiment), SNU-449 cells, 10,000 cells per well, free uptake, 2,000 nM oligonucleotide, approx. 48 hours, RTS36584, normalized to RIBOGREEN, Yap1 mRNA relative to untreated control.
The mark [6] stands for this setting: Table 49, Yap1 mRNA level relative to untreated control, modified oligonucleotides targeting SEQ ID NO.: 1 and 2.
The mark [7] stands for this setting: Table 43 experiment, SNU-449 cells, 10,000 cells per well, free uptake, 2,000 nM, approximately 48 hours, RTS36584, Yap1 mRNA normalized to RIBOGREEN, relative to untreated control cells.
Setting [8] is: Table 50, Yap1 mRNA remaining as percent of untreated control (UT), SNU-449 cells, single dose.
[9] abbreviates: Table 39, SNU-449 cells, 10,000 cells per well, free uptake, 2,000 nM oligonucleotide, approx. 48 hours, RTS36584, normalized to RIBOGREEN, Yap1 mRNA relative to untreated control.
The mark [10] stands for this setting: Table 46, Yap1 mRNA as percent of untreated control, SNU-449 cells, single dose.
Setting [11] is: Table 51, Yap1 mRNA remaining as percent of untreated control (UT), SNU-449 cells, single dose.

“1095621 (antisense kT*kG*dA*dG*dG*dT*dA*dT*dA*dA*d[5mC]*eT*kG*eG*kG*e[5mC]) [Compound 1095621]”: under setting [1], the “YAP1 (% UTC)” value worked out at 22 % UTC. In the case of “1198950 (kA*kT*dA*dT*dT*dG*d[5mC]*dA*dA*dT*d[5mC]*kT*dG*kT*d[5mC]*kT; antisense) [Compound 1198950]”, the “YAP1 (% UTC)” value under setting [2] is reported as 85 % UTC. As to “1200865 (kT*kA*kA*dG*dG*mU*dT*dT*d[5mC]*d[5mC]*d[5mC]*dA*dG*kA*kT*kT; antisense) [Compound 1200865]”, the “YAP1 (% UT)” value under setting [3] was 54 % UT. On to “1198686 (antisense kG*kA*d[5mC]*dA*dA*d[5mC]*dT*d[5mC]*dT*dT*dA*dT*kA*eT*kG*eG) [Compound 1198686]”, for which the “YAP1 (% UTC)” value under setting [4] was 78 % UTC. As for “1198766 (kT*e[5mC]*kA*dG*dA*dT*dT*dT*dA*dG*dG*dA*eT*eG*k[5mC]*kA; antisense) [Compound 1198766]”, under setting [5], the “YAP1 (% UTC)” value amounted to 19 % UTC. With “1198697 (antisense kA*kG*dT*dG*dT*dA*dT*dG*dT*d[5mC]*dA*dG*kA*eA*kG*eA) [Compound 1198697]”, under setting [4], the “YAP1 (% UTC)” value was found to be 12 % UTC. “1095565 (antisense kT*kG*kA*dG*dG*dT*dA*dT*dA*dA*d[5mC]*dT*kG*eG*kG*e[5mC]) [Compound 1095565]”: the “YAP1 (% UT)” value under setting [6] was determined as 25 % UT.

For the substance “1198779 (antisense kA*eA*kT*dA*dT*dT*dG*d[5mC]*dA*dA*dT*d[5mC]*eT*eG*kT*k[5mC]) [Compound 1198779]”, under setting [5], the “YAP1 (% UTC)” value worked out at 49 % UTC. For the substance “1198485 (antisense kA*kG*d[5mC]*dA*d[5mC]*dT*dT*dT*dT*dA*d[5mC]*eA*kT*eT*kA*eG) [Compound 1198485]”, under setting [7], the “YAP1 (% UTC)” value was 64 % UTC. Consider “1198505 (kA*kT*dT*d[5mC]*dA*dG*dA*dT*dT*dT*dA*eG*kG*eA*kT*eG; antisense) [Compound 1198505]”, for which, under setting [1], the “YAP1 (% UTC)” value was 73 % UTC. Take “1198917 (k[5mC]*kA*d[5mC]*dT*dT*dT*dT*dA*d[5mC]*dA*dT*kT*dA*kG*dG*kA; antisense) [Compound 1198917]”: the “YAP1 (% UTC)” value under setting [2] is given as 21 % UTC. Consider “1198594 (antisense k[5mC]*kT*kT*dA*dT*dA*dT*dG*dG*dT*dT*dT*kT*kG*kT*eG) [Compound 1198594]”, for which the “YAP1 (% UT)” value under setting [8] worked out at 23 % UT. For the substance “1198364 (kT*kA*kA*dG*dT*dA*dA*dG*dG*dT*dT*dT*k[5mC]*e[5mC]*k[5mC]*eA; antisense) [Compound 1198364]”, the “YAP1 (% UT)” value under setting [6] came to 29 % UT. Regarding “1198916 (kA*k[5mC]*dT*dT*dT*dT*dA*d[5mC]*dA*dT*dT*kA*dG*kG*dA*kA; antisense) [Compound 1198916]”, the “YAP1 (% UTC)” value under setting [2] amounted to 59 % UTC. Turning to “1198400 (kA*dA*dG*d[5mC]*dA*d[5mC]*dT*dT*dT*dT*dA*k[5mC]*eA*kT*eT*kA; antisense) [Compound 1198400]”, the “YAP1 (% UTC)” value under setting [9] stood at 62 % UTC. With “1198863 (kA*kT*dT*dG*d[5mC]*dA*dA*dT*d[5mC]*dT*dG*kT*e[5mC]*kT*eG*kA; antisense) [Compound 1198863]”, the “YAP1 (% UT)” value under setting [10] is 65 % UT. With “1198893 (kA*kA*dA*dT*dT*dG*dT*d[5mC]*dT*d[5mC]*dA*kT*dG*k[5mC]*d[5mC]*kT; antisense) [Compound 1198893]”, under setting [2], the “YAP1 (% UTC)” value is given as 58 % UTC. As for “1198829 (k[5mC]*kT*dT*dT*dT*dA*d[5mC]*dA*dT*dT*dA*kG*eG*kA*eA*k[5mC]; antisense) [Compound 1198829]”, under setting [10], the “YAP1 (% UT)” value is 36 % UT.

For the substance “1198253 (kA*d[5mC]*dT*d[5mC]*dT*dT*dA*dT*dA*dT*dG*eG*eT*eT*kT*kT; antisense) [Compound 1198253]”, the “YAP1 (% UTC)” value under setting [7] is 50 % UTC. As to “1198386 (kT*dA*dT*dA*dT*dT*dA*dG*dA*dG*dT*kA*eT*kG*eT*kG; antisense) [Compound 1198386]”, the “YAP1 (% UTC)” value under setting [9] is reported as 77 % UTC.

As to “1198341 (k[5mC]*kA*kA*d[5mC]*dT*d[5mC]*dT*dT*dA*dT*dA*dT*kG*eG*kT*eT; antisense) [Compound 1198341]”, the “YAP1 (% UT)” value under setting [6] was found to be 90 % UT. As to “1198968 (kA*kG*dT*dA*dA*dG*dG*dT*dT*dT*d[5mC]*k[5mC]*d[5mC]*kA*dG*kA; antisense) [Compound 1198968]”, the “YAP1 (% UTC)” value under setting [2] was determined as 57 % UTC. In the case of “1198372 (kA*dA*dT*dT*dG*dT*d[5mC]*dT*d[5mC]*dA*dT*kG*e[5mC]*k[5mC]*eT*kT; antisense) [Compound 1198372]”, the “YAP1 (% UTC)” value under setting [9] came out at 21 % UTC. “1198533 (kT*kA*dA*dG*dG*dT*dT*dT*d[5mC]*d[5mC]*d[5mC]*eA*kG*eA*kT*eT; antisense) [Compound 1198533]”: under setting [1], the “YAP1 (% UTC)” value is listed as 35 % UTC. For “1198682 (antisense k[5mC]*kT*d[5mC]*dT*dT*dA*dT*dA*dT*dG*dG*dT*kT*eT*kT*eG) [Compound 1198682]”, under setting [4], the “YAP1 (% UTC)” value is on record as 25 % UTC. Turning to “1200792 (kA*kT*kA*dT*dG*mG*dA*dA*dA*dT*dT*dG*dT*k[5mC]*kT*k[5mC]; antisense) [Compound 1200792]”, under setting [3], the “YAP1 (% UT)” value stood at 52 % UT. As for “1198238 (kA*kT*dA*dG*dT*dG*d[5mC]*dT*dT*dT*dG*eG*eA*eA*kG*kA) [Compound 1198238]”, the “YAP1 (% UTC)” value under setting [4] turned out to be 88 % UTC. With “1198441 (kA*dA*dA*dG*dT*dG*dT*dA*dT*dG*dT*k[5mC]*eA*kG*eA*kA; antisense) [Compound 1198441]”, the “YAP1 (% UTC)” value under setting [5] was found to be 19 % UTC.

Take “1198251 (kT*k[5mC]*dT*dT*dA*dT*dA*dT*dG*dG*dT*eT*eT*eT*kG*kT; antisense) [Compound 1198251]”: the “YAP1 (% UTC)” value under setting [7] is 83 % UTC. As for “1198315 (kT*kT*kA*dA*dG*d[5mC]*dA*d[5mC]*dT*dT*dT*dT*kA*e[5mC]*kA*eT; antisense) [Compound 1198315]”, for the setting “Table 48, Yap1 mRNA level relative to untreated control, modified oligonucleotides targeting SEQ ID NO.: 1 and 2”, the “YAP1 (% UT)” value turned out to be 85 % UT. With “1198226 (kG*k[5mC]*dA*d[5mC]*dT*dT*dT*dT*dA*d[5mC]*dA*eT*eT*eA*kG*kG) [Compound 1198226]”, under setting [4], the “YAP1 (% UTC)” value was 23 % UTC. Turning to “1198430 (kA*dT*dA*dT*dT*dG*d[5mC]*dA*dA*dT*d[5mC]*kT*eG*kT*e[5mC]*kT) [Compound 1198430]”, the “YAP1 (% UTC)” value under setting [9] is given as 49 % UTC. Regarding “1198943 (kT*k[5mC]*dT*dT*dA*dT*dA*dT*dG*dG*dT*kT*dT*kT*dG*kT; antisense) [Compound 1198943]”, under setting [2], the “YAP1 (% UTC)” value is 31 % UTC. “1200811 (kT*kT*kA*d[5mC]*dA*mU*dT*dA*dG*dG*dA*dA*d[5mC]*kA*kA*kG; antisense) [Compound 1200811]”: the “YAP1 (% UT)” value under setting [3] was found to be 62 % UT. With “1197279 (kT*kT*kA*dG*mA*d[5mC]*dT*dA*dA*dG*dT*dA*dA*kG*kG*kT) [Compound 1197279]”, the “YAP1 (% UT)” value under setting [11] was determined as 54 % UT.

Regarding “1198678 (antisense kA*kT*dA*dT*dG*dG*dT*dT*dT*dT*dG*dT*kG*eT*kG*eT) [Compound 1198678]”, the “YAP1 (% UTC)” value under setting [4] worked out at 58 % UTC. With “1095426 (antisense k[5mC]*kT*dG*dA*dG*dG*dT*dA*dT*dA*dA*k[5mC]*eT*kG*eG*kG) [Compound 1095426]”, under setting [10], the “YAP1 (% UT)” value was found to be 54 % UT.

Regarding “1197311 (kT*kT*kT*dA*mU*dG*dT*dA*dA*dT*dA*dT*dT*kG*k[5mC]*kA; antisense) [Compound 1197311]”, the “YAP1 (% UT)” value under setting [11] is 27 % UT. For “1197293 (k[5mC]*kA*k[5mC]*dT*mU*dT*dT*dA*d[5mC]*dA*dT*dT*dA*kG*kG*kA; antisense) [Compound 1197293]”, the “YAP1 (% UT)” value under setting [8] turned out to be 94 % UT. For “1095482 (antisense k[5mC]*kT*dG*dA*dG*dG*dT*dA*dT*dA*dA*d[5mC]*kT*eG*kG*eG) [Compound 1095482]”, the “YAP1 (% UTC)” value under setting [4] turned out to be 72 % UTC. As to “1198958 (kT*kG*dT*dA*dT*dG*dT*d[5mC]*dA*dG*dA*kA*dG*kA*dG*kT; antisense) [Compound 1198958]”, the “YAP1 (% UTC)” value under setting [2] is reported as 12 % UTC. On to “1198411 (kA*dG*dG*dA*dT*dG*d[5mC]*dA*dT*dG*dG*kT*eT*kT*eT*kT; antisense) [Compound 1198411]”, for which the “YAP1 (% UTC)” value under setting [9] was 33 % UTC.

As for “1198600 (antisense kG*kA*k[5mC]*dA*dA*d[5mC]*dT*d[5mC]*dT*dT*dA*dT*kA*kT*kG*eG) [Compound 1198600]”, the “YAP1 (% UT)” value under setting [8] came to 72 % UT. For “1198552 (antisense kA*kG*kA*dG*dT*dA*dT*dG*dT*dG*dG*d[5mC]*kA*kA*kT*eA) [Compound 1198552]”, the “YAP1 (% UT)” value under setting [6] is recorded as 17 % UT. “1198948 (kG*kA*d[5mC]*dA*dA*d[5mC]*dT*d[5mC]*dT*dT*dA*kT*dA*kT*dG*kG; antisense) [Compound 1198948]”: under setting [2], the “YAP1 (% UTC)” value worked out at 96 % UTC. With “1198463 (antisense kA*kT*dG*dG*dA*dA*dA*dT*dT*dG*dT*e[5mC]*kT*e[5mC]*kA*eT) [Compound 1198463]”, under setting [7], the “YAP1 (% UTC)” value was found to be 59 % UTC.
